The results in this text go back to ChEMBL document CHEMBL1132806, “Anti-HIV activity of a series of cosalane amino acid conjugates” (Bioorg Med Chem Lett, 2000).

A short description of series [1]: Cytotoxicity of compound was tested as concentration required for 50% reduction in cellular viability in CEM-SS cells. In kind it is cell-based. The settings on record: human.
Another series deals with CEM-SS. The series can be described thus: Tested for inhibition of cytopathic effect of HIV-1RF in CEM-SS cells. In kind it is functional, cell-based. The settings on record: Homo sapiens.
Series [2] relates to MT4. The experiment in a line: Tested for inhibition of cytopathic effect of HIV-1 IIIB in MT-4 cells. The class given is functional, cell-based. Conditions: Homo sapiens. (Cytopathic effects are the visible damage that an infection or toxin causes in cultured cells.)
In series [3] the test system is MT4. The experiment in a line: Tested for inhibition of cytopathic effect of HIV-2ROD in MT-4 cells. The class given is functional, cell-based. The settings on record: Homo sapiens.
Series [4] can be described thus: Cytotoxicity of compound was tested as concentration required for 50% reduction in cellular viability in MT-4 cells. The class given is cell-based, MT4. The settings on record: human.

A value given as a limit tells only on which side of the number the result lay.

As to `CC(C)CCCC(C)[C@H]1CC[C@H]2[C@@H]3CCC4C[C@@H](CCC=C(c5cc(Cl)c(O)c(C(=O)N[C@@H](CC(=O)O)C(=O)O)c5)c5cc(Cl)c(O)c(C(=O)N[C@@H](CC(=O)O)C(=O)O)c5)CC[C@]4(C)[C@H]3CC[C@]12C` (stereo partly specified), the CC50 is 90 µM in series [1] and over 125 µM in series [4]. In addition, the EC50 with CEM-SS came out at 10.7 µM; in the series on MT4 [2] it was 16.6 µM; in the series on MT4 [3], 122 µM.
As to `CC(C)CCCC(C)[C@H]1CC[C@H]2[C@@H]3CCC4C[C@@H](CCC=C(c5cc(Cl)c(O)c(C(=O)NCCC(=O)O)c5)c5cc(Cl)c(O)c(C(=O)NCCC(=O)O)c5)CC[C@]4(C)[C@H]3CC[C@]12C` (stereo partly specified), the CC50 in series [1] is over 200 µM; in series [4], over 125 µM. Moreover, the EC50 with CEM-SS turned out to be 34.7 µM; with MT4 [2], 75.3 µM; with MT4 [3], 120 µM.
`CC(C)CCCC(C)[C@H]1CC[C@H]2[C@@H]3CCC4C[C@@H](CCC=C(c5cc(Cl)c(O)c(C(=O)NCC(=O)OC(C)(C)C)c5)c5cc(Cl)c(O)c(C(=O)NCC(=O)OC(C)(C)C)c5)CC[C@]4(C)[C@H]3CC[C@]12C` (stereo partly specified): the CC50 in series [1] and in series [4] was over 125 µM each time. Also, the 50% effective concentration (EC50) in the series on MT4 [2] and in the series with MT4 [3] was over 125 µM in each case.
For `CC(C)CCCC(C)[C@H]1CC[C@H]2[C@@H]3CCC4C[C@@H](CCC=C(c5cc(Cl)c(O)c(C(=O)O)c5)c5cc(Cl)c(O)c(C(=O)O)c5)CC[C@]4(C)[C@H]3CC[C@]12C` (stereo partly specified), the CC50 in series [1] and in series [4] was over 200 µM each time.
`CC(C)CCCC(C)[C@H]1CC[C@H]2[C@@H]3CCC4C[C@@H](CCC=C(c5cc(Cl)c(O)c(C(=O)N[C@@H](CC(C)C)C(=O)O)c5)c5cc(Cl)c(O)c(C(=O)N[C@@H](CC(C)C)C(=O)O)c5)CC[C@]4(C)[C@H]3CC[C@]12C` (stereo partly specified): the CC50 was over 200 µM in series [1] and over 125 µM in series [4]. The EC50 in the series with CEM-SS was 40 µM; in the series with MT4 [2], 63 µM; in the series on MT4 [3], over 125 µM.
As to `CC(C)CCCC(C)[C@H]1CC[C@H]2[C@@H]3CCC4C[C@@H](CCCC(c5cc(Cl)c(O)c(C(=O)NCC(=O)O)c5)c5cc(Cl)c(O)c(C(=O)NCC(=O)O)c5)CC[C@]4(C)[C@H]3CC[C@]12C` (stereo partly specified), the CC50 was over 200 µM in series [1] and over 125 µM in series [4]. The EC50 was 4.5 µM in the series with CEM-SS, 34.8 µM in the series with MT4 [2] and over 125 µM with MT4 [3].
As for `CC(C)CCCC(C)[C@H]1CC[C@H]2[C@@H]3CCC4C[C@@H](CCC=C(c5cc(Cl)c(O)c(C(=O)N[C@@H](Cc6ccccc6)C(=O)O)c5)c5cc(Cl)c(O)c(C(=O)N[C@@H](Cc6ccccc6)C(=O)O)c5)CC[C@]4(C)[C@H]3CC[C@]12C` (stereo partly specified), the CC50 in series [1] was over 200 µM; in series [4] it was 62 µM. Besides, the concentration giving a half-maximal response (EC50) is over 200 µM in the series on CEM-SS, over 62 µM in the series on MT4 [2] and over 62 µM in the series on MT4 [3].
For the molecule `CC(C)CCCC(C)[C@H]1CC[C@H]2[C@@H]3CCC4C[C@@H](CCCC(c5cc(Cl)c(O)c(C(=O)N[C@@H](CCC(=O)O)C(=O)O)c5)c5cc(Cl)c(O)c(C(=O)N[C@@H](CCC(=O)O)C(=O)O)c5)CC[C@]4(C)[C@H]3CC[C@]12C` (stereo partly specified), the 50% cytotoxic concentration (CC50) in series [1] was 34 µM; in series [4] it was over 125 µM. The EC50 in the series with CEM-SS is 11.6 µM; with MT4 [2] it was 10.6 µM; in the series with MT4 [3], 75.2 µM.
For the molecule `CC(C)CCCC(C)[C@H]1CC[C@H]2[C@@H]3CCC4C[C@@H](CCC=C(c5cc(Cl)c(O)c(C(=O)N[C@@H](CCC(=O)O)C(=O)O)c5)c5cc(Cl)c(O)c(C(=O)N[C@@H](CCC(=O)O)C(=O)O)c5)CC[C@]4(C)[C@H]3CC[C@]12C` (stereo partly specified), the cytotoxic concentration (CC50) in series [1] was 82 µM; in series [4], over 125 µM. Besides, the EC50 in the series on CEM-SS was 1.1 µM; in the series on MT4 [2], 9.2 µM; in the series with MT4 [3] it was 71.6 µM.
On the same counts, the results for `CC(C)CCCC(C)[C@H]1CC[C@H]2[C@@H]3CCC4C[C@@H](CCC=C(c5cc(Cl)c(O)c(C(=O)NCC(=O)O)c5)c5cc(Cl)c(O)c(C(=O)NCC(=O)O)c5)CC[C@]4(C)[C@H]3CC[C@]12C` (stereo partly specified) are over 200 µM, over 125 µM, 3.44 µM, 50.8 µM and over 125 µM.

The term CC50 denotes the concentration that lowers cell viability or growth by half. Higher therefore signals lower toxicity to the cells. Broadly, the EC50 is the concentration at which the effect is half-maximal.
